This note sets out measurements from patent publication US20050043315A1, “Aminopyrimidine compounds, processes for their preparation and pharmaceutical compositions containing them” (priority 2002, published 2005).

One may read the melting point as the temperature of the solid-liquid transition.

SMILES strings stand for the structures. Where only a bound is given, the exact number is not on record here.

In the case of `COc1ccc(-c2nc(N)ncc2-c2ccc(=O)[nH]n2)cc1OC` [Example 37, 6-[2-Amino-4-(3,4-dimethoxyphenyl)-5-pyrimidinyl]-3(2H)-pyridazinone], the melting point is 225 °C.
For `Nc1ncc(-c2ccc(=O)[nH]n2)c(-c2ccc(Cl)c(Cl)c2)n1` [Example 38, 6-[2-Amino-4-(3,4-dichlorophenyl)-5-pyrimidinyl]-3(2H)-pyridazinone], the melting point was 300 °C.
The compound `Cc1ccccc1-c1nc(N)ncc1-c1ccc(=O)[nH]n1` [Example 39, 6-[2-Amino-4-(2-methylphenyl)-5-pyrimidinyl]-3(2H)-pyridazinone] yielded a melting point of 313 °C.
To `COc1ccccc1-c1nc(N)ncc1-c1ccc(=O)[nH]n1` [Example 40, 6-[2-Amino-4-(2-methoxyphenyl)-5-pyrimidinyl]-3(2H)-pyridazinone] belongs 273 °C; to `Nc1ncc(-c2ccc(=O)[nH]n2)c(-c2cccs2)n1` [Example 41, 6-[2-Amino-4-(2-thienyl)-5-pyrimidinyl]-3(2H)-pyridazinone], 265 °C.
To `Cc1cccc(-c2nc(N)ncc2-c2ccc(=O)[nH]n2)c1` [Example 42, 6-[2-Amino-4-(3-methylphenyl)-5-pyrimidinyl]-3(2H)-pyridazinone] belongs 216 °C.
Turning to `COc1cccc(-c2nc(N)ncc2-c2ccc(=O)[nH]n2)c1` [Example 43, 6-[2-Amino-4-(3-methoxyphenyl)-5-pyrimidinyl)-3(2H)-pyridazinone], the melting point stood at 134 °C.
To `COc1ccc(-c2nc(N)ncc2-c2ccc(=O)n(C(C)C)n2)cc1` [Example 44, 6-[2-amino-4-(4-methoxyphenyl)-5-pyrimidinyl]-2-isopropyl-3(2H)-pyridazinone] belongs 216.5 °C; to `CC(C)n1nc(-c2cnc(N)nc2-c2ccc(Cl)cc2)ccc1=O` [Example 45, 6-[2-Amino-4-(4-chlorophenyl)-5-pyrimidinyl]-2-isopropyl-3(2H)-pyridazinone], 195 °C; to `COc1ccc(-c2nc(N)ncc2-c2ccc(=O)n(C(C)C)n2)cc1F` [Example 46, 6-[2-Amino-4-(3-fluoro-4-methoxyphenyl)-5-pyrimidinyl]-2-isopropyl-3(2H)-pyridazinone], 174 °C.
To `Cc1ccc(-c2nc(N)ncc2-c2ccc(=O)n(C(C)C)n2)cc1` [Example 48, 6-[2-Amino-4-(4-methylphenyl)-5-pyrimidinyl]-2-isopropyl-3(2H)-pyridazinone] belongs 224 °C; to `CC(C)n1nc(-c2cnc(N)nc2-c2ccc(F)c(F)c2)ccc1=O` [Example 49, 6-[2-Amino-4-(3,4-difluorophenyl)-5-pyrimidinyl]-2-isopropyl-3(2H)-pyridazinone], 208 °C.
The compound `CC(C)n1nc(-c2cnc(N)nc2-c2ccc(Cl)c(Cl)c2)ccc1=O` [Example 50, 6-[2-Amino-4-(3,4-dichlorophenyl)-5-pyrimidinyl]-2-isopropyl-3(2H)-pyridazinone] returned a melting point of 176 °C.
In the case of `COc1ccc(-c2nc(N)ncc2-c2ccc(=O)n(C(C)C)n2)cc1OC` [Example 51, 6-[2-Amino-4-(3,4-dimethoxyphenyl)-5-pyrimidinyl]-2-isopropyl-3(2H)-pyridazinone], the melting point was determined as 167 °C.
To `CC(C)n1nc(-c2cnc(N)nc2-c2cccnc2)ccc1=O` [Example 52, 6-[2-Amino-4-(3-pyridinyl)-5-pyrimidinyl]-2-isopropyl-3(2H)-pyridazinone] belongs 204 °C; to `CC(C)n1nc(-c2cnc(N)nc2-c2ccncc2)ccc1=O` [Example 53, 6-[2-Amino-4-(4-pyridinyl)-5-pyrimidinyl]-2-isopropyl-3(2H)-pyridazinone], 219 °C.
In turn, `CC(C)n1nc(-c2cnc(N)nc2-c2cccs2)ccc1=O` [Example 55, 6-(2-Amino-4-(2-thienyl)-5-pyrimidinyl]-2-isopropyl-3(2H)-pyridazinone] showed a melting point of 213 °C.
For `Cc1ccccc1-c1nc(N)ncc1-c1ccc(=O)n(C(C)C)n1` [Example 56, 6-[2-Amino-4-(2-methylphenyl)-5-pyrimidinyl]-2-isopropyl-3(2H)-pyridazinone], the melting point was 203 °C.
As to `Cc1cccc(-c2nc(N)ncc2-c2ccc(=O)n(C(C)C)n2)c1` [Example 57, 6-[2-Amino-4-(3-methylphenyl)-5-pyrimidinyl]-2-isopropyl-3(2H)-pyridazinone], the melting point came out at 198 °C.
For `COc1ccccc1-c1nc(N)ncc1-c1ccc(=O)n(C(C)C)n1` [Example 58, 6-[2-Amino-4-(2-methoxyphenyl)-5-pyrimidinyl]-2-isopropyl-3(2H)-pyridazinone] the value was 170 °C; for `COc1cccc(-c2nc(N)ncc2-c2ccc(=O)n(C(C)C)n2)c1` [Example 59, 6-[2-Amino-4-(3-methoxyphenyl)-5-pyrimidinyl]-2-isopropyl-3(2H)-pyridazinone], 211 °C.
To `COc1ccc(-c2nc(N)ncc2-c2ccc(=O)n(C)n2)cc1` [Example 60, 6-[2-Amino-4-(4-methoxyphenyl)-5-pyrimidinyl]-2-methyl-3(2H)-pyridazinone] belongs 259 °C; to `Cn1nc(-c2cnc(N)nc2-c2ccc(Cl)cc2)ccc1=O` [Example 61, 6-[2-Amino-4-(4-chlorophenyl)-5-pyrimidinyl]-2-methyl-3(2H)-pyridazinone], 264 °C; to `Cn1nc(-c2cnc(N)nc2-c2cccc(F)c2)ccc1=O` [Example 62, 6-[2-Amino-4-(3-fluorophenyl)-5-pyrimidinyl]-2-methyl-3(2H)-pyridazinone], 212.5 °C.
Take `COc1ccc(-c2nc(N)ncc2-c2ccc(=O)n(C)n2)cc1F` [Example 63, 6-(2-Amino-4-(3-fluoro-4-methoxyphenyl)-5-pyrimidinyl]-2-methyl-3(2H)-pyridazinone]: the melting point amounted to 245 °C.
For `Cn1nc(-c2cnc(N)nc2-c2ccco2)ccc1=O` [Example 64, 6-[2-Amino-4-(2-furyl)-5-pyrimidinyl]-2-methyl-3(2H)-pyridazinone] the value was 234 °C; for `Cc1ccc(-c2nc(N)ncc2-c2ccc(=O)n(C)n2)cc1` [Example 65, 6-[2-Amino-4-(4-methylphenyl)-5-pyrimidinyl]-2-methyl-3(2H)-pyridazinone], 230 °C; for `Cn1nc(-c2cnc(N)nc2-c2ccc(F)c(F)c2)ccc1=O` [Example 66, 6-[2-Amino-4-(3,4-difluorophenyl)-5-pyrimidinyl]-2-methyl-3(2H)-pyridazinone], 231 °C.
For `COc1ccc(-c2nc(N)ncc2-c2ccc(=O)n(C)n2)cc1OC` [Example 67, 6-[2-Amino-4-(3,4-dimethoxyphenyl)-5-pyrimidinyl]-2-methyl-3(2H)-pyridazinone] the value was 232 °C.
For `Cn1nc(-c2cnc(N)nc2-c2ccc(Cl)c(Cl)c2)ccc1=O` [Example 68, 6-[2-Amino-4-(3,4-dichlorophenyl)-5-pyrimidinyl]-2-methyl-3(2H)-pyridazinone] the value was 238 °C; for `Cn1nc(-c2cnc(N)nc2-c2cccs2)ccc1=O` [Example 69, 6-[2-Amino-4-(2-thienyl)-5-pyrimidinyl]-2-methyl-3(2H)-pyridazinone], 270 °C; for `Cc1ccccc1-c1nc(N)ncc1-c1ccc(=O)n(C)n1` [Example 70, 6-[2-Amino-4-(2-methylphenyl)-5-pyrimidinyl]-2-methyl-3(2H)-pyridazinone], 229 °C.
In the case of `Cc1cccc(-c2nc(N)ncc2-c2ccc(=O)n(C)n2)c1` [Example 71, 6-[2-Amino-4-(3-methylphenyl)-5-pyrimidinyl]-2-methyl-3(2H)-pyridazinone], the melting point came out at 214 °C.
The compound `COc1ccccc1-c1nc(N)ncc1-c1ccc(=O)n(C)n1` [Example 72, 6-[2-Amino-4-(2-methoxyphenyl)-5-pyrimidinyl]-2-methyl-3(2H)-pyridazinone] gave a melting point of 225 °C.
`COc1cccc(-c2nc(N)ncc2-c2ccc(=O)n(C)n2)c1` [Example 73, 6-[2-Amino-4-(3-methoxyphenyl)-5-pyrimidinyl]-2-methyl-3(2H)-pyridazinone] returned a melting point of 195 °C.
To `Cn1nc(-c2cnc(N)nc2-c2ccccc2Br)ccc1=O` [Example 74, 6-[2-Amino-4-(2-bromophenyl)-5-pyrimidinyl]-2-methyl-3(2H)-pyridazinone] belongs more than 250 °C.
For `CSc1nc(N)nc(-c2ccccc2)c1-c1ccc(=O)n(C(C)C)n1` [Example 78, 6-[2-amino-4-(methylthio)-6-phenyl-5-pyrimidinyl]-2-isopropyl-3(2H)-pyridazinone] the value was 221 to 222 °C; for `CC(C)n1nc(-c2c(-c3ccccc3)nc(N)nc2[S+](C)[O-])ccc1=O` (stereo not drawn) [Example 79, 6-[2-amino-4-(methylsulfinyl)-6-phenyl-5-pyrimidinyl]-2-isopropyl-3(2H)-pyridazinone], 225 to 227 °C; for `CC(C)n1nc(-c2c(-c3ccccc3)nc(N)nc2S(C)(=O)=O)ccc1=O` [Example 79, 6-[2-amino-4-(methylsulfonyl)-6-phenyl-5-pyrimidinyl]-2-isopropyl-3(2H)-pyridazinone], 210 to 211 °C.
`COc1nc(N)nc(-c2ccccc2)c1-c1ccc(=O)n(C(C)C)n1` [Example 80, 6-(2-amino-4-methoxy-6-phenyl-5-pyrimidinyl)-2-isopropyl-3(2H)-pyridazinone] returned a melting point of 230 to 233 °C.
On to `CCOc1nc(N)nc(-c2ccccc2)c1-c1ccc(=O)n(C(C)C)n1` [Example 81, 6-(2-amino-4-ethoxy-6-phenyl-5-pyrimidinyl)-2-isopropyl-3(2H)-pyridazinone], for which the melting point was 187.5 to 188.5 °C.
Regarding `CC(C)Oc1nc(N)nc(-c2ccccc2)c1-c1ccc(=O)n(C(C)C)n1` [Example 82, 6-(2-Amino-4-isopropoxy-6-phenyl-5-pyrimidinyl)-2-isopropyl-3(2H)-pyridazinone], the melting point fell in the range of 176.5 to 177.5 °C.
